1 compound from patent US9150528B2, “Compound having detrusor muscle-contracting activity and urethral sphincter muscle-relaxing activity” (ONO PHARMACEUTICAL CO., LTD., priority 2009, dated 2015) can be followed below.

The structures appear in SMILES notation. Some results are limits rather than exact numbers.

Data set [1] relates to human lyophilized liver cells. Put plainly: Stability evaluation in lyophilized liver cells. Type of data set: in vitro ADME. To be noted: 37° C. As for the experimental part:
KHEM5100 medium which includes human lyophilized liver cells after dissolving (final concentration of living cells: 1×10^6 cells/mL) and the test compound (acetonitrile or methanol solution, final concentration≦1%) was incubated at 37° C. Immediately after reaction and with the passage of reaction time, some portions were sampled from the medium. The concentrations of the test compound in the samples were measured by LC/MS/MS. The residual rate of the test compound relative to immediately after reaction was calculated by the following equation: Residual rate=the concentration of the test compound in the sample after reaction/the concentration of the test compound in the sample immediately after reaction×100(%) The residual rates were plotted on a single logarithmic scale against reaction time to calculate loss rate constants. The test was repeated (n=2), and the obtained values were averaged.

Another data set relates to cynomolgus monkeys. The data set can be described thus: Effects on cardiac function in anesthetized cynomolgus monkeys. In kind it is in vivo, cynomolgus monkey. Conditions: continuous intravenous 30 min. On the procedure: Cynomolgus monkeys were anesthetized with pentobarbital (at an initial dose of 20-30 mg/kg by intravenous administration; at a dose of 4-5 mg/kg/hr by intravenous continuous administration). A tracheal tube was inserted and experiments were carried out under artificial respiration (fresh air+pure oxygen, ventilatory volume: 10-15 mL/kg, ventilation frequency: 10-15 times/min). In the right lying position, the left thorax was opened between the fourth and fifth intercostal spaces. The […] (the origin of the left anterior descending artery or circumflex branch) and the origin of the ascending main artery were peeled off and transducers for blood flow measurement were located there. The blood flow rates were measured using an electronic blood flowmeter or an ultrasonic blood flowmeter. The blood pressures were measured using a pressure transducer in a state where a catheter was inserted into the right femoral artery. The left ventricular internal pressure was measured in a state where a catheter was inserted from the left carotid artery into the left ventricle. The electrocardiogram was measured using needle electrodes installed in the right armpit and the left thorax. After catheters for administration were inserted into the right and left cephalic veins and femoral veins, the test compound, pentobarbital (under anesthesia) or an aqueous solution (SOLITA T3 containing 1.2% NaHCO3) were administered therethrough. The test compound was continuously administered intravenously 30 min using a continuous infusion system. The blood pressure, left ventricular internal pressure, blood flow rate through the coronary artery and electrocardiogram data were simultaneously inputted to a PowerLab system (LabChart6, AD instruments) to measure/calculate average blood pressure, heart rate, average blood flow rate through the coronary artery, beat volume, stroke volume (beat volume/heart rate), maximum first deviation of the left ventricular internal pressure, total peripheral blood vessel resistance (average blood pressure/beat volume), cardiac performance (average blood pressure x beat volume) and double product (systolic arterial pressure x heart rate), which is indicative of myocardial oxygen consumption.
The averages of all evaluation parameters for 1 min were obtained before administration, immediately after administration, and 10 min, 20 min and 30 min after administration, and changes of the averages relative to the value measured before administration which is defined as 100% were calculated.

Data set [2] is described as follows: Parallel artificial membrane permeability assay (PAMPA). Conditions: sum of pH 5.0, 6.2 and 7.4, 25° C., read-out: membrane permeability coefficients (PAMPA(SUM)). Type of data set: in vitro ADME. As for the experimental part:
The permeability of the drugs through artificial membranes was measured by parallel artificial membrane permeability assay (PAMPA) under the following conditions. For the measurements, a PAMPA system (pION) was used. The membrane permeability was evaluated by measuring membrane permeability coefficients at three pH values and summing the values (PAMPA(SUM)(cm/sec)).
Lipid membrane: GIT-0 (pION)
Incubation temperature: 25° C.
Donor: 5% DMSO-containing buffer
Compound concentration: 50 μmol/L
(PAMPA measures passive passage across an artificial lipid membrane.)

Data set [3] can be described thus: Systemic clearance after intravenous administration. Type of data set: in vivo. Conditions: plasma, cynomolgus monkey, 0.001 mg/mL/kg. As for the experimental part:
Equimolar sodium hydroxide and injectable distilled water were added to each of the test compounds to prepare a 1 mg/mL aqueous solution. The aqueous solution was diluted with physiological saline until the concentration reached 0.001 mg/mL and was rapidly administered at a dose of 0.001 mg/mL/kg to cynomolgus monkey through the cephalic vein. Via heparinized syringes, 2 min, 5 min, 15 min, 30 min, 1 hr, 2 hr, 4 hr, 6 hr, 8 hr and 24 hr after administration, blood was drawn from the cephalic vein (non-administered sites). After centrifugation, blood plasma was sampled and stored at −80° C. before pretreatment. The blood plasma was pretreated by mixing with acetonitrile and centrifuging to remove proteins followed by measurement by LC/MS/MS. Changes of concentration in blood plasma was analyzed using WinNonlin4.0.1 to evaluate the systemic clearance of the test compound.

The subject of the next data set is male rats. The data set can be described thus: Digestive symptoms after repeated oral administration. Type of data set: in vivo, rat. Conditions: 0.1 mg/kg oral, repeated for 4 days. As for the experimental part:
Using male rats, aged 6 weeks, general states of the rats were observed after repeating oral administration of the test compound at a dose of 0.1 mg/kg for 4 days. To a control, injectable water which is a medium was administered.

A further data set has as its system urethral sphincter. The data set can be described thus: Relaxation of isolated rat urethra specimens (Magnus system), phenylephrine-induced contraction. In kind it is cell-based. Conditions: for Contractility of the urethral sphincter according to the compound concentration treated: rat urethra specimen. As for the experimental part:
Rats were anesthetized with pentobarbital, followed by abdominal incision to remove the bladders and the urethras. The bladder bodies were cut in the longitudinal direction to prepare strip specimens with a size of about 10×3 mm. Additionally, each of the urethras was also cut in the longitudinal direction to prepare specimens with a size of about 10×3 mm. The prepared specimens were suspended in Krebs buffer (37° C., 5 mL), which was aerated with a mixed gas of 95% O2 and 5% CO2. The tension values of the specimens were measured using a Magnus system equipped with an isometric transducer and an amplifier, and the measured values were recorded on a computer via a data collection system.
The specimens were suspended with a load of about 0.5 g. More than 1 hr later, potassium chloride (100 mmol/L) was added to the suspension and the maximal contraction response was observed. After washing with Krebs buffer, the specimens were suspended with a load of about 0.5 g for stabilization. Thereafter, a phenylephrine (100 μmol/L) was added to the suspension to induce the contraction of the specimens. After stabilization of the contraction-inducing response, the test compound was added in a cumulative manner and the response was observed before and after the treatment of the drug.

One may read the clearance as the volume of plasma or blood freed of the substance per unit of time. The low end stands for inefficient removal, the high end for efficient removal. As for `C[C@@](O)(C/C=C/[C@H]1CCC(=O)[C@@H]1CCSc1nc(C(=O)O)cs1)CCC(F)=C(F)F` [Compound 17, 2-[(2-{(1R,5R)-2-oxo-5-[(1E,4S)-7,8,8-trifluoro-4-hydroxy-4-methyl-1,7-octadien-1-yl]cyclopentyl}ethyl)thio]-1,3-thiazole-4-carboxylic acid], the Residual rate was 100% in data set [1] (Reaction time 0 h); 111% in data set [1] (Reaction time 0.5 h); 101% in data set [1] (Reaction time 1 h); 100% in data set [1] (Reaction time 1 h, listed as compound 17); 82.2% in data set [1] (Reaction time 2 h); at least 80% in data set [1] (Reaction time 2 h, listed as compound 17). For the same compound, the cardiac performance result in the data set with cynomolgus monkeys (30 ng/kg/min) and with cynomolgus monkeys (100 ng/kg/min) was “did not affect” in each case. Also, the double product result with cynomolgus monkeys (30 ng/kg/min) and in the data set with cynomolgus monkeys (100 ng/kg/min) was “did not affect” in each case. Further, the “other cardiac function parameters, including the blood flow rate through the coronary artery” value in the data set on cynomolgus monkeys is “did not affect”. In data set [2], the Papp at 4 hr, 50 μmol/L worked out at 59.3 ×10⁻⁶ cm/s. For the same compound, the clearance in data set [3] turned out to be 3.6 mL/min/kg. The “digestive symptoms such as soft feces” value in the data set with male rats is “No digestive symptoms”. The “Contractility of the urethral sphincter according to the compound concentration treated” value with urethral sphincter (0 nmol/L) is 5 % of phenylephrine; in the data set with urethral sphincter (1 nmol/L), −2 % of phenylephrine; in the data set with urethral sphincter (10 nmol/L), −9 % of phenylephrine; with urethral sphincter (100 nmol/L), −36 % of phenylephrine; in the data set with urethral sphincter (1 μmol/L) it was −83 % of phenylephrine; in the data set with urethral sphincter (10 μmol/L) it was −89 % of phenylephrine. For the same compound, in the data set on urethral sphincter (summary in words of Table 2), the “effect on the urethral sphincter” value is on record as “relaxed the urethral sphincter”.
